# Measured values published in patent US20090005424A9, “Composition and Method for Treating Fibrotic Diseases” (priority 2005, published 2009).
# Marks after values point to notes of the source that are not given here.
# Experiments:
# [1] = Acute oral toxicity in Kun Ming mice, LD50 by Bliss method; details: both sexes, Kun Ming (KM), mouse, in vivo, po
# Procedure: Male and female Kun Ming (KM) mice weighing between 18 g-22 g were acquired from the animal facility of Hsiang-Ya Medical College, the Central South University. Fifty Kun Ming mice were randomly assigned into 5 groups with 5 male and 5 female mice for each group. The animals went through fasting with a normal water supply before starting drug treatment (either AKF-PD or PIRFENIDONE). The drug was administrated orally by gavage. The volume of liquid drug was 20 ml/kg body weight. The range of dosage for AKF-PD administrated was from 1071 mg/kg to 6000 mg/kg. The dosage difference between two adjacent doses was 1:0.65 (a dose vs the next lower dose). All animals were maintained under a regular condition. Acute toxic reaction and death within 14 days of post drug treatment were recorded. Autopsy was performed on all dead animals and visual examination was performed on all organs.
# LD50 was calculated according to Bliss method. […] The results of Table 15 are very close to those reported in the literature: 997.7 mg/kg (U.S. Pat. No. 5,310,562) and 1112 mg/kg(Pharmaceutical Care and Research 5:4823(2005)).
# [2] = tested on: SD rat, renal interstitial fibrosis induced by surgical ligation of single side ureter; experiment: Rat ureter ligation model of renal interstitial fibrosis, AKF-PD vs PFD (Example 12); type: in vivo; details: ureter-ligated rats; PFD 500 mg/kg/d, AKF-PD 500 mg/kg/d by gavage; 14 days post surgery
# Procedure: Anti-fibrotic effect of AKF-PD was tested on a SD rat model for renal interstitial fibrosis induced by surgical ligation of single side ureter. Male SD rats (180 g˜220 g) were randomly divided into disease model group, PFD (500 mg/kg/d) group and AKF-PD (500 mg/kg/d) group. […] The respective drugs were administrated by gavage to rats in the groups of PFD and AKF-PD from one day prior to the procedure to 14 days post surgical procedure. Normal saline was administrated in a similar fashion to the rats in the groups of disease model. The animals were sacrificed 14 days after surgical procedure and their kidney were removed for pathological (HE staining) examination.
# Kidney Fibroblast = experiment: MTT proliferation assay, mouse kidney fibroblast; type: cell-based
# Procedure: (§1) Cell proliferation was measured by MTT assay. DMEM with 10% fetal serum was used as cell culture medium. The cells were prepared in suspension (1×10^5/ml), and 100 μL of the suspension was transferred to each well of a 96 wells plate. Once the cells were attached to the plastic, the culture was changed to serum free medium and continued for another 24 hours. The serum free medium was aspirated, and various concentrations of 1-(3′-fluorophenyl)-5-methyl-2(1H)-pyridone (AKF-PD) 1-(3′-bromophenyl)-5-methyl-2(1H)-pyridone (AKF-BR) or PIRFENIDONE (PFD) in 10% serum medium were added into each well with 5 replicates for each concentration. The cells were stained with MTT (10 μL per well) at 24, 48, and 72 hours post drug treatment. After 4 hrs of incubation, the medium with MTT was aspirated from each well. One hundred μL MTT solvent was added to each well for 15 min. The dissolved MTT was then measured with a plate reader at 570 nm.
# [3] = tested on: Human Peritoneal Mesothelial Cells; experiment: MTT proliferation assay, human peritoneal mesothelial cells; type: cell-based
# Procedure: (§2) In the following examples, myocardiac fibroblasts, skin scar forming fibroblast and human peritoneal mesothelial cells are primary cultures prepared according to common procedure. Other cells are commercially purchased. 1-(3-fluorophenyl)-5-methyl-2(1H)-pyridone (AKF-PD) is prepared as a suspension in 5% carboxymethylcellulose.
# as §1, with “and incubated” for “and continued”, “hours. Then, the” for “hours. The”, “(AKF-PD)” for “(AKF-PD) 1-(3′-bromophenyl)-5-methyl-2(1H)-pyridone (AKF-BR)”, “at 12, […], or 48” for “at 24, 48, and 72”, “15 min, and the” for “15 min. The”, “was” for “was then”
# [4] = tested on: Human Skin Scar Forming Fibroblasts; experiment: MTT proliferation assay, human skin scar forming fibroblasts; type: cell-based
# Procedure: as §2
# (§3) Cell proliferation was measured by MTT assay. DMEM with 10% fetal serum was used as cell culture medium. The cells were prepared in suspension (1×10^5/ml), and 100 μL of the suspension was transferred to each well of a 96 wells plate. Once the cells were attached to the plastic, the culture was changed to serum free medium and incubated for another 24 hours. Then, the serum free medium was aspirated, and various concentrations of 1-(3′-fluorophenyl)-5-methyl-2(1H)-pyridone (AKF-PD) or PIRFENIDONE (PFD) in 10% serum medium were added into each well with 5 replicates for each concentration. The cells were stained with MTT (10 μL per well) at 12, 24, or 48 hours post drug treatment. After 4 hrs of incubation, the medium with MTT was aspirated from each well. One hundred μL MTT solvent was added to each well for 15 min, and the dissolved MTT was measured with a plate reader at 570 nm.
# [5] = tested on: Rat Myocardiac Fibroblasts; experiment: MTT proliferation assay, rat myocardiac fibroblasts; type: cell-based
# Procedure: as §2, §3
smiles,measurement,setting,value
"Cc1ccc(=O)n(-c2ccccc2)c1 [PFD, 5-methyl-1-phenyl-2(1H)-pyridone, reference compound]",LD50 at 14 days,[1]; LD50,955 mg/kg
same,LD50 at 14 days,[1]; LD50 95% confidence limit,551 to 1660 mg/kg
same,Histological Score for Interstitial Compartment,[2],8.06 ± 2.41
same,Optical Density at 570 nm,"Kidney Fibroblast; 100 μg/ml, 24 h",0.5911 ± 0.1002
same,Optical Density at 570 nm,"Kidney Fibroblast; 100 μg/ml, 48 h",0.5844 ± 0.0171
same,Optical Density at 570 nm,"Kidney Fibroblast; 100 μg/ml, 72 h",0.5264 ± 0.1530
same,Optical Density at 570 nm,"Kidney Fibroblast; 500 μg/ml, 24 h",0.5877 ± 0.1204
same,Optical Density at 570 nm,"Kidney Fibroblast; 500 μg/ml, 48 h",0.5450 ± 0.0196
same,Optical Density at 570 nm,"Kidney Fibroblast; 500 μg/ml, 72 h",0.4798 ± 0.2355
same,Optical Density at 570 nm,"Kidney Fibroblast; 1000 μg/ml, 24 h",0.5798 ± 0.0149
same,Optical Density at 570 nm,"Kidney Fibroblast; 1000 μg/ml, 48 h",0.5272 ± 0.0229
same,Optical Density at 570 nm,"Kidney Fibroblast; 1000 μg/ml, 72 h",0.4269 ± 0.0302
same,order of inhibitory effect,Kidney Fibroblast; kidney fibroblast,AKF-PD>AKF-BR>pirfenidone
same,Optical Density at 570 nm,"[3]; 100 μg/ml, 12 h",0.346 ± 0.006
same,Optical Density at 570 nm,"[3]; 100 μg/ml, 24 h",0.584 ± 0.005
same,Optical Density at 570 nm,"[3]; 100 μg/ml, 48 h",0.810 ± 0.006
same,Optical Density at 570 nm,"[3]; 500 μg/ml, 12 h",0.343 ± 0.004
same,Optical Density at 570 nm,"[3]; 500 μg/ml, 24 h",0.577 ± 0.003
same,Optical Density at 570 nm,"[3]; 500 μg/ml, 48 h",0.766 ± 0.004
same,Optical Density at 570 nm,"[4]; 100 μg/ml, 12 h",0.194 ± 0.004
same,Optical Density at 570 nm,"[4]; 100 μg/ml, 24 h",0.250 ± 0.003
same,Optical Density at 570 nm,"[4]; 100 μg/ml, 48 h",0.366 ± 0.006
same,Optical Density at 570 nm,"[4]; 500 μg/ml, 12 h",0.191 ± 0.008
same,Optical Density at 570 nm,"[4]; 500 μg/ml, 24 h",0.245 ± 0.004*^+
same,Optical Density at 570 nm,"[4]; 500 μg/ml, 48 h",0.350 ± 0.003***^++
same,Optical Density at 570 nm,"[4]; 1000 μg/ml, 12 h",0.190 ± 0.008
same,Optical Density at 570 nm,"[4]; 1000 μg/ml, 24 h",0.330 ± 0.001*^++
same,Optical Density at 570 nm,"[4]; 1000 μg/ml, 48 h",0.328 ± 0.004***^++
same,Optical Density at 570 nm,"[4]; 2500 μg/ml, 12 h",0.193 ± 0.004
same,Optical Density at 570 nm,"[4]; 2500 μg/ml, 24 h",0.278 ± 0.001***^+++
same,Optical Density at 570 nm,"[4]; 2500 μg/ml, 48 h",0.264 ± 0.005
same,Optical Density at 570 nm,"[5]; 100 μg/ml, 12 h",0.330 ± 0.014
same,Optical Density at 570 nm,"[5]; 100 μg/ml, 24 h",0.429 ± 0.009
same,Optical Density at 570 nm,"[5]; 100 μg/ml, 48 h",0.654 ± 0.007*^+
same,Optical Density at 570 nm,"[5]; 500 μg/ml, 12 h",0.329 ± 0.013
same,Optical Density at 570 nm,"[5]; 500 μg/ml, 24 h",0.411 ± 0.006
same,Optical Density at 570 nm,"[5]; 500 μg/ml, 48 h",0.612 ± 0.014***^++
same,Optical Density at 570 nm,"[5]; 1000 μg/ml, 12 h",0.331 ± 0.009
same,Optical Density at 570 nm,"[5]; 1000 μg/ml, 24 h",0.403 ± 0.010**^+
same,Optical Density at 570 nm,"[5]; 1000 μg/ml, 48 h",0.597 ± 0.013***^+++
same,Optical Density at 570 nm,"[5]; 2500 μg/ml, 12 h",0.329 ± 0.008
same,Optical Density at 570 nm,"[5]; 2500 μg/ml, 24 h",0.392 ± 0.009**^+
same,Optical Density at 570 nm,"[5]; 2500 μg/ml, 48 h",0.566 ± 0.027
